The numbers were not newly measured in patent US20070213409A1, “USE OF PREPARATIONS FOR SKIN ENZYME PROTECTION” (BEIERSDORF AG, priority 2005, published 2007), which cites them from elsewhere.

The test system of data set [1] is stratum corneum chymotryptic enzyme (SCCE). The following applies: competitive inhibition; associated with reduced desquamation.
Data set [2] has as its system stratum corneum tryptic enzyme (SCTE). The following applies: competitive inhibition; associated with reduced desquamation.
Data set [3] deals with desquamation (SCCE and SCTE serine proteases).

Structures can show the parent of a compound that is named as a salt.

As to `CC(C)CCC[C@@H](C)[C@H]1CC[C@H]2[C@@H]3CC=C4C[C@@H](OS(=O)(=O)O)CC[C@]4(C)[C@H]3CC[C@]12C` [cholesterol-3 sulfate], the “effect on activity of SCCE” value in data set [1] is on record as “reduces”. In data set [2], the “effect on activity of SCTE” value was “reduces”.
For the compound aprotinin, the “skin flakes in vivo after topical application” value in data set [3] is reported as “more skin flakes”.
In the case of `CC(=O)N[C@@H](CC(C)C)C(=O)N[C@@H](CC(C)C)C(=O)N[C@H](C=O)CCCNC(=N)N` [leupeptin], the “skin flakes in vivo after topical application” value in data set [3] is “more skin flakes”.
